Results published in patent US4963655A, “Boron analogs of amino acid/peptide protease inhibitors” (Mayo Foundation for Medical Education and Research, priority 1988, dated 1990).

Legend:
[1] = test system: Human melanoma cells (A375); assay: Growth Inhibition Assay; assay type: cell-based; conditions: for % Inhib (growth): 96 h exposure, fresh inhibitor every 24 h; for growth inhibitory activity (in words): other serine protease inhibitors, Table 2; for Growth Inhibition (%) 24 hr: counted after 24 hr growth; for Growth Inhibition (%) 48 hr: counted after 48 hr growth; for Growth Inhibition (%) 96 hr: counted after 96 hr growth
Procedure: Human melanoma cells (A375) were seeded at 2 ×10^4 cells per tissue culture dish (60×15 mm, Falcon) in Delbecco's Minimal Essential Media (DMEM) containing 10% fetal calf serum and including 1% antibiotics. Cells were allowed to attach for 48 hours prior to exposure to drugs. Cbz-ala-1-borovaline and Cbz-ala-1-borophenylalanine were dissolved in dimethyl sulfoxide (DMSO). The final DMSO concentration in media was 0.5%. Fresh media was exchanged for the media including the drug at appropriate exposure times. Cells were counted after 24, 48 or 96 hours of growth using a Coulter counter. Growth inhibition is expressed as the percent reduction of drug treated cells with respect to untreated control cells.

[2] = test system: Human melanoma cells (A375); assay: Colony Formation Assay (CFA); assay type: cell-based
Procedure: Human melanoma cells (A375) were seeded at 500 cells per tissue culture dish and allowed to recover for 48 hours. The drug and media mixture was prepared as described above. Following drug exposure, fresh media were substituted for the drug and media mixture. After 7 days, colonies were stained with 0.25% Coomassie Blue and enumerated. Data are expressed as the percent of colonies present in treated plates with respect to control plates (percent survival).

[3] = test system: L1210 murine leukemia cells; assay: Growth inhibition of L1210 cells in culture; assay type: cell-based; conditions: 72-hour exposure, 0.03 uM
Procedure: Following a 72-hour exposure to 0.03 uM ala-1-borovaline, approximately 50% growth inhibition was observed. The two compounds are also cytotoxic to human tumor cell lines. While not yet fully understood, the mechanism of cytotoxicity is not via macromolecular synthesis inhibition in the human tumor cell lines.

[4] = test system: human lung carcinoma (A549) cells; assay: Growth and colony formation of A549 cells in culture; assay type: cell-based
Text: Qualitatively similar results were obtained against human lung carcinoma (A549) cells in culture (data not shown). […] The plateau, however, was not observed in association with the analog after the 1-hour (FIG. 3A) or continuous (FIG. 3C) exposure times. A similar plateau was never observed with Cbz-ala-1-borophenylalanine treatment. A plateau was also seen with A549 cells. A growth inhibition assay (Table 1) yielded qualitatively similar results as the colony formation assay.

[5] = test system: Lewis lung murine tumor cells; conditions: Lewis lung murine tumor cells in culture; Goz et al.; cited from earlier work
A375 cells = assay: Macromolecular synthesis: protein synthesis ([3H]-leucine incorporation); assay type: cell-based, human; conditions: 0.075 ug/ml
Procedure: Protein synthesis was determined by the incorporation of [^3 H]-leucine into protein in viable cells.
Human melanoma (A375) cells were seeded at 1 ×10^5 cells per tissue culture dish 48 hours prior to the addition of the drug (for example, Cbz-ala-1borovaline or Cbz-ala-1-borophenylalanine). The drug and media mixture was prepared as described above. During the last 30 minutes of drug exposure radioactive labeled precursors were added to the media and drug mixture. Specifically, either ^3 H-thymidine (0.2 uCi/ml, to measure DNA synthesis), ^3 H-uridine (0.2 uCi/ml, to measure RNA synthesis, or ^3 H-leucine (1 uCi/ml, to measure protein synthesis) were added. Following 30 minutes at 37° C., the cells were harvested, resuspended in physiological buffered saline (PBS) and the cells counted. An aliquot of the cell suspension was then lysed (10 mM Tris, 1 mM EDTA, 0.1% SDS) and macromolecules were precipitated with ice-cold trichloroacetic acid (TCA) (20%). Following three washes with TCA, radioactivity in the resulting pellet was counted on a Beckman LS2000 Scintillation Counter. Data is expressed as the percentage of counts incorporated into 1×10^6 treated cells as compared to 1×10^6 untreated cells (percent incorporation).

Aprotinin [reference compound]
% Inhib (growth) ([1]; 1.54 uM): 0%
% Inhib (growth) ([1]; 15.4 uM): 0%
% Inhib (growth) ([1]; .015 uM): 0%
% Inhib (growth) ([1]; .154 uM): 0%
growth inhibitory activity (in words) [1]: Negligible growth inhibition

CC(NC(=O)OCc1ccccc1)C(=O)NC(B(O)O)C(C)C (centres unmarked) [Cbz-ala-1-Borovaline, Cbz-ala-1-borovaline]
Growth Inhibition (%) 24 hr ([1]; exposure 1 h, 7.36 uM): 14%
Growth Inhibition (%) 48 hr ([1]; exposure 1 h, 7.36 uM): 33%
Growth Inhibition (%) 96 hr ([1]; exposure 1 h, 7.36 uM): 46%
Growth Inhibition (%) 24 hr ([1]; exposure 1 h, 29.43 uM): 23%
Growth Inhibition (%) 48 hr ([1]; exposure 1 h, 29.43 uM): 48%
Growth Inhibition (%) 96 hr ([1]; exposure 1 h, 29.43 uM): 73%
Growth Inhibition (%) 24 hr ([1]; exposure 24 h, 1.47 uM): 61%
Growth Inhibition (%) 48 hr ([1]; exposure 24 h, 1.47 uM): 88%
Growth Inhibition (%) 96 hr ([1]; exposure 24 h, 1.47 uM): 93%
Growth Inhibition (%) 24 hr ([1]; exposure 24 h, .003 uM): 5%
Growth Inhibition (%) 48 hr ([1]; exposure 24 h, .003 uM): 5%
Growth Inhibition (%) 96 hr ([1]; exposure 24 h, .003 uM): 14%
Growth Inhibition (%) 24 hr ([1]; exposure 24 h, .029 uM): 17%
Growth Inhibition (%) 48 hr ([1]; exposure 24 h, .029 uM): 50%
Growth Inhibition (%) 96 hr ([1]; exposure 24 h, .029 uM): 68%
Growth Inhibition (%) 24 hr ([1]; exposure 96 h, .029 uM): 21%
Growth Inhibition (%) 48 hr ([1]; exposure 96 h, .029 uM): 51%
Growth Inhibition (%) 96 hr ([1]; exposure 96 h, .029 uM): 68%
Growth Inhibition (%) 24 hr ([1]; exposure 96 h, .736 uM): 53%
Growth Inhibition (%) 48 hr ([1]; exposure 96 h, .736 uM): 78%
Growth Inhibition (%) 96 hr ([1]; exposure 96 h, .736 uM): 89%
inhibition of colony formation, comparison of potency (in words) ([2]; FIG. 3): more potent inhibitor of colony formation than was Cbz-ala-1-borophenylalanine
Colony Formation Inhibition (%) ([2]; exposure 1 h, 7.36 uM): 41%
Colony Formation Inhibition (%) ([2]; exposure 1 h, 29.43 uM): 87%
Colony Formation Inhibition (%) ([2]; exposure 24 h, 1.47 uM): 87%
Colony Formation Inhibition (%) ([2]; exposure 24 h, .003 uM): 5%
Colony Formation Inhibition (%) ([2]; exposure 24 h, .029 uM): 43%
growth inhibition [3]: approximately 50%
inhibition of growth and colony formation (in words) [4]: effective inhibitors

CC(NC(=O)OCc1ccccc1)C(=O)NC(Cc1ccccc1)B(O)O (centres unmarked) [Cbz-ala-1-Borophenylalanine, Cbz-ala-1-borophenylalanine]
growth inhibition ([1]; 0.075 ug/ml, 24-hour exposure): 70%
Growth Inhibition (%) 24 hr ([1]; exposure 1 h, 51.6 uM): 20%
Growth Inhibition (%) 48 hr ([1]; exposure 1 h, 51.6 uM): 41%
Growth Inhibition (%) 96 hr ([1]; exposure 1 h, 51.6 uM): 52%
Growth Inhibition (%) 24 hr ([1]; exposure 1 h, 129 uM): 42%
Growth Inhibition (%) 48 hr ([1]; exposure 1 h, 129 uM): 65%
Growth Inhibition (%) 96 hr ([1]; exposure 1 h, 129 uM): 69%
Growth Inhibition (%) 24 hr ([1]; exposure 24 h, .026 uM): 5%
Growth Inhibition (%) 48 hr ([1]; exposure 24 h, .026 uM): 3%
Growth Inhibition (%) 96 hr ([1]; exposure 24 h, .026 uM): 15%
Growth Inhibition (%) 24 hr ([1]; exposure 24 h, .129 uM): 41%
Growth Inhibition (%) 48 hr ([1]; exposure 24 h, .129 uM): 63%
Growth Inhibition (%) 96 hr ([1]; exposure 24 h, .129 uM): 68%
Growth Inhibition (%) 24 hr ([1]; exposure 24 h, .645 uM): 75%
Growth Inhibition (%) 48 hr ([1]; exposure 24 h, .645 uM): 72%
Growth Inhibition (%) 96 hr ([1]; exposure 24 h, .645 uM): 98%
Growth Inhibition (%) 24 hr ([1]; exposure 96 h, .1239 uM): 38%
Growth Inhibition (%) 48 hr ([1]; exposure 96 h, .1239 uM): 68%
Growth Inhibition (%) 96 hr ([1]; exposure 96 h, .1239 uM): 75%
Growth Inhibition (%) 24 hr ([1]; exposure 96 h, .258 uM): 58%
Growth Inhibition (%) 48 hr ([1]; exposure 96 h, .258 uM): 91%
Growth Inhibition (%) 96 hr ([1]; exposure 96 h, .258 uM): 95%
Colony Formation Inhibition (%) ([2]; exposure 1 h, 51.6 uM): 55%
Colony Formation Inhibition (%) ([2]; exposure 24 h, .026 uM): 10%
Colony Formation Inhibition (%) ([2]; exposure 24 h, .129 uM): 35%
Colony Formation Inhibition (%) ([2]; exposure 24 h, .645 uM): 97%
cytotoxicity (in words) [5]: modest activity
inhibition of protein synthesis (A375 cells): did not show an acute inhibition of protein synthesis
inhibition of growth and colony formation (in words) [4]: effective inhibitors

N-tosylphenylalanine chloromethyl ketone [TPCK, reference compound]
% Inhib (growth) ([1]; 2.84 uM): 42%
% Inhib (growth) ([1]; 28.4 uM): 100%
% Inhib (growth) ([1]; 142 uM): 100%
% Inhib (growth) ([1]; 284 uM): 100%
% Inhib (growth) ([1]; .028 uM): 5%
% Inhib (growth) ([1]; .284 uM): 9%
growth inhibitory activity (in words) [1]: inhibited growth at very high concentrations

B1: Ovomucoid: serine protease inhibitor (protein, UniProt P01005 25-210, looked up)
Ovomucoid: AEVDCSRFPNATDKEGKDVLVCNKDLRPICGTDGVTYTNDCLLCAYSIEFGTNISKEHDGECKETVPMNCSSYANTTSEDGKVMVLCNRAFNPVCGTDGVTYDNECLLCAHKVEQGASVDKRHDGGCRKELAAVSVDCSEYPKPDCTAEDRPLCGSDNKTYGNKCNFCNAVVESNGTLTLSHFGKC
% Inhib (growth) ([1]; 3.57 uM): 0%
% Inhib (growth) ([1]; 17.9 uM): 0%
% Inhib (growth) ([1]; 89.3 uM): 5%
% Inhib (growth) ([1]; .004 uM): 0%
% Inhib (growth) ([1]; .036 uM): 0%
% Inhib (growth) ([1]; .357 uM): 1%
growth inhibitory activity (in words) [1]: Negligible growth inhibition
